Measured values as given in ChEMBL document CHEMBL1147091, “Prevalence of plasmid-mediated quinolone resistance determinants QnrA, QnrB, and QnrS among clinical isolates of Enterobacter cloacae in a Taiwanese hospital” (2007).
Converted amounts (≈) assume the structure as drawn. The source made the active and inactive calls. The rule behind the calls is not given here.

How the values were obtained:
[1] = system: Enterobacter cloacae; test: Susceptibility of qnr positive Enterobacter cloacae assessed as percentage nonsusceptible isolates; type: functional
[2] = system: Enterobacter cloacae; test: Susceptibility of metallo beta lactamase and extended spectrum beta lactamase deficient qnr positive Enterobacter cloacae assessed as percentage nonsusceptible isolates; type: functional
[3] = system: Enterobacter cloacae; test: Susceptibility of qnr positive Enterobacter cloacae producing IMP8 and/or SHV12 assessed as percentage nonsusceptible isolates
[4] = system: Escherichia coli; test: Decrease in susceptibility of qnrS-positive transconjugant streptomycin-resistant Escherichia coli C600; type: functional
[5] = system: Escherichia coli; test: Decrease in susceptibility of qnrB-positive transconjugant streptomycin-resistant Escherichia coli C600; type: functional
[6] = system: Enterobacter cloacae; test: Susceptibility of qnr positive Enterobacter cloacae; type: functional

Row | SMILES | Activity [1] | Activity [4] | other results
1 | CC(C)(O/N=C(\C(=O)N[C@@H]1C(=O)N2C(C(=O)[O-])=C(C[n+]3ccccc3)CS[C@H]12)c1csc(N)n1)C(=O)O [CEFTAZIDIME] | 86% |  | Activity [2]: 29.4%; Activity [3]: 100%
2 | CC(=O)OCC1=C(C(=O)O)N2C(=O)[C@@H](NC(=O)Cc3cccs3)[C@H]2SC1 |  | inactive | 
3 | NCC[C@H](O)C(=O)N[C@@H]1C[C@H](N)[C@@H](O[C@H]2O[C@H](CN)[C@@H](O)[C@H](O)[C@H]2O)[C@H](O)[C@H]1O[C@H]1O[C@H](CO)[C@@H](O)[C@H](N)[C@H]1O [AMIKACIN] | 3.5% |  | 
4 | CO/N=C(\C(=O)N[C@@H]1C(=O)N2C(C(=O)O)=C(COC(C)=O)CS[C@H]12)c1csc(N)n1 [CEFOTAXIME] | 97.8% |  | 
5 | C[C@@H](O)[C@H]1C(=O)N2C(C(=O)O)=C(SCCNC=N)C[C@H]12 [IMIPENEM ANHYDROUS] | 9.3% |  | 
6 | O=C(O)c1cn(C2CC2)c2cc(N3CCNCC3)c(F)cc2c1=O [CIPROFLOXACIN] |  | 0.25 µg/mL | 
7 | CC1(C)S[C@@H]2[C@H](NC(=O)[C@H](N)c3ccccc3)C(=O)N2[C@H]1C(=O)O |  | inactive | 
8 | CCn1cc(C(=O)O)c(=O)c2ccc(C)nc21 [NALIDIXIC ACID] | 100% |  | MIC [5]: 16 µg/mL (≈ 68.9 µM); MIC90 [6]: > 256 µg/mL; MIC ([4]; Escherichia coli, C600): 16 µg/mL (≈ 68.9 µM)
